Experimental data taken from ChEMBL document CHEMBL1122215, “2-(Aminomethyl)phenols, a new class of saluretic agents. 5. Fused-ring analogues” (1983).

Columns and labels:
Canis familiaris [1] = assay: Saluretic property in average of two anesthetized dogs after 5 mg/kg intravenous administration; format: functional, Canis lupus familiaris
Rattus norvegicus [2] = assay: Saluretic property after 80 mg/kg oral administration in rats; format: functional
Canis familiaris [3] = assay: Saluretic property in average of one used conscious dog after 5 mg/kg intravenous administration; format: functional, Canis lupus familiaris
Rattus norvegicus [4] = assay: Saluretic property after 50 mg/kg oral administration in rats; format: functional
Canis familiaris [5] = assay: Saluretic property in average of two conscious dogs after 5 mg/kg intravenous administration; format: functional, Canis lupus familiaris
Canis familiaris [6] = assay: Saluretic property in average of single anesthetized dogs after 5 mg/kg intravenous administration; format: functional, Canis lupus familiaris
Canis familiaris [7] = assay: Saluretic property in average of three anesthetized dogs after 5 mg/kg intravenous administration; format: functional, Canis lupus familiaris
Canis familiaris [8] = assay: Saluretic property in average of two anesthetized dogs after 5 mg/kg iv administration; format: functional, Canis lupus familiaris
Canis familiaris [9] = assay: Saluretic property in average of two anesthetized dogs after 1 mg/kg intravenous administration; format: functional, Canis lupus familiaris

Row | Structure (SMILES) | Score (Canis familiaris [1]) | Score (Rattus norvegicus [4]) | further results
1 | Cl.Cl.NCc1c(O)ccc2cccnc12 | 0 |  | Score (Rattus norvegicus [2]): 0
2 | Cl.Cl.NCc1c(O)ccc2ncccc12 |  | 0 | Score (Canis familiaris [3]): 1
3 | Cl.Cl.Cl.NCc1cc(Cl)c2cccnc2c1O |  |  | Score (Canis familiaris [5]): 1
4 | CC1Nc2ccc(O)c(CN)c2S1.Cl.Cl (centres undefined) | 0 | 0 | 
5 | Cl.Cl.NCc1ccc2cnccc2c1O |  | 0 | Score (Canis familiaris [6]): 1
6 | Cl.NCc1c(O)ccc2nccnc12 |  | 0 | Score (Canis familiaris [7]): 1
7 | Cl.NCc1cc(Cl)c2ccccc2c1O | 6 | 2 | 
8 | Cc1cc(C)c2c(c1O)C(N)CC2.Cl (centres undefined) | 0 | 0 | 
9 | Cc1cc(=O)oc2ccc(O)c(CN)c12.Cl |  | 0 | Score (Canis familiaris [8]): 0
10 | Cl.NCc1c(O)ccc2ccccc12 | 1 |  | 
11 | Cc1c(O)c(CN)c(C)c2c1CCCC2.Cl |  | 5 | Score (Canis familiaris [5]): 4
12 | Cl.NC1CCc2c(Cl)ccc(O)c21 (centres undefined) | 1 |  | 
13 | CCC1Cc2c(Cl)c(Cl)c(O)c(CN)c2C1.Cl (centres undefined) | 0 | 0 | 
14 | NCc1ccccc1O [2-(AMINOMETHYL)PHENOL] |  | 0 | Score (Canis familiaris [8]): 0
15 | NS(=O)(=O)c1cc(C(=O)O)c(NCc2ccco2)cc1Cl [FUROSEMIDE] |  | 3 | Score (Canis familiaris [9]): 6
16 | NS(=O)(=O)c1cc2c(cc1Cl)NCNS2(=O)=O [HYDROCHLOROTHIAZIDE] |  | 2 | Score (Canis familiaris [7]): 1
